Results from paper PMC9921063 (Molecules, 2023).

Tests used:
L. major amastigotes = assay: Antileishmanial assay, amastigotes; assay type: cell-based, Leishmania major; settings: mean ± S.D.
Procedure: (§1) This assay was carried out according to the methods mentioned in our previously published article. L. major promastigotes were isolated locally from an indoor patient in 2016, liquid nitrogen was used for the preservation of the parasites, and BALB/c mice were used for the maintenance of the parasites and production of L. major amastigotes. Phenol red-free RPMI 1640 medium (Invitrogen, USA) with 10% FBS was used for the culture and in vitro evaluation, while amphotericin B (AmB) was used as reference drug.

[1] = DPPH radical scavenging activity; settings: antiradical scavenging; mean ± S.D.
Procedure: (§2) Three methods were used for the assessing antioxidant properties of the selected compounds, which are 2.2-diphenyl-1-picrylhydrazyl (DPPH), 2.2’-azino-bis (3-ethylbenzothiazoline-6-sulphonic acid) (ABTS) radicals scavenging, and β-carotene linoleic acid bleaching assay. […] The control compound was butylated hydroxytoluene (BHT), which is a potent antioxidant.
Briefly, various amounts of produced compounds were diluted with ultrapure water after being dissolved in dimethylsulfoxide (DMSO)/water (1/9; v/v) (1, 0.5, 0.250, 0.125, 0.0625, 0.03125 mg mL^−1). The samples were then combined with […] of a 4% (w/v) solution of the DPPH radical in ethanol. The combination was incubated for 30 min. at room temperature and in the dark. Spectrophotometric analysis was used to calculate the scavenging capacity by comparing the decrease in absorbance at 517 nm to a blank.
(§3) All the assays used for antioxidant determination (DPPH, ABTS, and β-carotene bleaching assay) were performed simultaneously three times in the same conditions. The results obtained in µM mL^−1 average of the three experiments.

Vero cell = assay: In vitro cytotoxicity assay, MTT; assay type: cell-based; settings: mean ± S.D.
Procedure: MTT colorimetric technique was carried out for cytotoxicity evaluation according to the methods mentioned in our previously published article. An amount of 96 well plates with complete were used for the culture of the cells. FLUOstar OPTIMA spectrophotometer was applied for colorimetric analysis and in vitro evaluation.

[2] = β-Carotene linoleic acid bleaching assay; settings: β-carotene bleaching test; mean ± S.D.
Procedure: as §2
β-Carotene bleaching test was conducted following the method described by Pratt’s.
as §3

TyrE = TyrE (Agaricus bisporus, UniProt C7FF04); assay type: biochemical
[3] = tested on: T. gondii tachyzoites RH strain; assay: Antitoxoplasmal assay; assay type: cell-based, Toxoplasma gondii; settings: mean ± S.D.
Procedure: This assay was carried out according to the methods mentioned in our previously published article. Vero cells line (ATCC® CCL81™, USA) were used for the serial passage and cultivation of T. gondii tachyzoites RH strain, complete RPMI 1640 medium with heat-inactivated 10% FBS was used for the culture and in vitro evaluation, while atovaquone (ATO) was used as reference drug. The results were expressed in IC50 of three independent readings, followed by the selectivity index (SI) calculation by dividing CC50 over IC50 of the same compound [56].

L. major promastigotes = assay: Antileishmanial assay, promastigotes; assay type: cell-based, Leishmania major; settings: mean ± S.D.
Procedure: as §1

[4] = ABTS radical scavenging assay; settings: antiradical scavenging; mean ± S.D.
Procedure: as §2
ABTS radical scavenging activity was conducted by referring to the method of Re et al..
as §3

[5] = tested on: colon carcinoma cells (HCT-116); assay: In vitro anticancer proliferation (cytotoxicity) assay; assay type: cell-based, human; settings: mean ± S.D.
Procedure: (§4) The selected compound was investigated for its cytotoxic properties against HCT-116 and HepG-2 (cancer cell lines of ATCC, Rockville, MD, USA). Vinblastine was applied as reference drug. The assay was conducted according to the methods described by Mossman and our recently published data.

[6] = tested on: hepatocellular carcinoma cell lines (HepG-2); assay: as above; assay type: cell-based, human; settings: hepatocellular carcinoma cells; mean ± S.D.
Procedure: as §4

[7] = tested on: all examined microorganisms; assay: Antimicrobial activity, summary over all examined microorganisms; assay type: cell-based; settings: for Inhibition of the examined indicator organisms: all of the examined indicator organisms
Procedure: (§5) Microorganisms, media and growth conditions, agar well diffusion method for inhibition zone determination (IZ) and minimum inhibitory concentration (MIC) were performed according to the literature work.
(§6) The synthesized compounds were examined in vitro for their antimicrobial activity against Six standard microorganisms of ATCC, two Gram positive bacteria S. aureus and Listeria monocytogenes, three Gram negative bacteria Esherichia coli, Pseudomonas aeruginosa and Salmonella typhimurium and the fungus C. albicans. Bacteria were cultured in Luria-Bertani (LB) medium, while Sabouraud agar was used for culturing C. albicans and the assay conducted according to our previous techniques. The results were the average of 3 readings.

L. monocytogenes [8] = assay: Minimum inhibitory concentration (MIC); assay type: cell-based, Listeria monocytogenes
Procedure: as §5, §6

C. albicans [9] = assay: Minimum inhibitory concentration (MIC); assay type: cell-based
Procedure: as §5, §6

S. aureus [10] = assay: Minimum inhibitory concentration (MIC); assay type: cell-based
Procedure: as §5, §6

S. typhimurium [11] = assay: Minimum inhibitory concentration (MIC); assay type: cell-based, Salmonella typhimurium
Procedure: as §5, §6

P. aeruginosa = assay: Agar well diffusion, inhibition zone; assay type: cell-based, Pseudomonas aeruginosa
Procedure: as §5, §6

S. typhimurium [12] = assay: Agar well diffusion, inhibition zone; assay type: cell-based, Salmonella typhimurium
Procedure: as §5, §6

E. coli = assay: Agar well diffusion, inhibition zone; assay type: cell-based, Esherichia coli
Procedure: as §5, §6

C. albicans [13] = assay: Agar well diffusion, inhibition zone; assay type: cell-based
Procedure: as §5, §6

S. aureus [14] = assay: Agar well diffusion, inhibition zone; assay type: cell-based
Procedure: as §5, §6

L. monocytogenes [15] = assay: Agar well diffusion, inhibition zone; assay type: cell-based, Listeria monocytogenes
Procedure: as §5, §6

electric eel AChE = electric eel AChE (Electrophorus electricus, UniProt O42275); assay: biochemical; assay type: biochemical; settings: mean ± S.D.
Procedure: According to the Ellman et al. published spectrophotometric method of electric eel AChE [47], AChEI activity was measured. Acetylthiocholine iodide (ATCI) was used as the reaction’s substrate, and the antiacetylcholinesterase activity was measured using 5,5’-Dithiobis-(2-nitrobenzoic acid) (DTNB).

[16] = against all examined microorganisms

Chain of TyrE (C7FF04 1-392): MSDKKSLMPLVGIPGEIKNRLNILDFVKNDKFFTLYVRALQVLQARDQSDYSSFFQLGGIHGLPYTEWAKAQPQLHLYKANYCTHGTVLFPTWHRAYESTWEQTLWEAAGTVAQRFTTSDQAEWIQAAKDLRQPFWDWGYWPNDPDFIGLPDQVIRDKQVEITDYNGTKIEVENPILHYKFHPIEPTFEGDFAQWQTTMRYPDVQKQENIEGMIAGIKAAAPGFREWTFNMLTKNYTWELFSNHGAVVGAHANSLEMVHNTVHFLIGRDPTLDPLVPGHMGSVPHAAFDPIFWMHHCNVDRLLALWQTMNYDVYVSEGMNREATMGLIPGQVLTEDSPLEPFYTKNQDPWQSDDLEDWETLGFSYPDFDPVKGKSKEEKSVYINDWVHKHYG
Chain of electric eel AChE (O42275 24-633): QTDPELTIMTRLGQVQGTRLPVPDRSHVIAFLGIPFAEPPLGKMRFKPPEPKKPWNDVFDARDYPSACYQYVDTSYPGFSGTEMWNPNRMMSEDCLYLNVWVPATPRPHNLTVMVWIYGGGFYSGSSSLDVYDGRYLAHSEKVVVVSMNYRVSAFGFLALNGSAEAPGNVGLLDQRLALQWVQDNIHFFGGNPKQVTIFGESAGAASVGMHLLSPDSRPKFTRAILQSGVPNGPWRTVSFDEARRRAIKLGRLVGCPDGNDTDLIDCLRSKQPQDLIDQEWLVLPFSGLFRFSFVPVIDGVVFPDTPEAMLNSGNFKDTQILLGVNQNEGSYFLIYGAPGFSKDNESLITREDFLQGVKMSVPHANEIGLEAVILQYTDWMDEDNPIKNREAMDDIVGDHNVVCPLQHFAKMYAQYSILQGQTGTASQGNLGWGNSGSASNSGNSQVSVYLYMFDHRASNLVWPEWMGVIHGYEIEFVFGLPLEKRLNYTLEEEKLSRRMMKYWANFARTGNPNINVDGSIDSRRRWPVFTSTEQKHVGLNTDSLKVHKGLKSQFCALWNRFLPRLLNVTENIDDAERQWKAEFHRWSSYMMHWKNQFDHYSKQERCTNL

Substance	Amastigote IC50 (L. major amastigotes) [µM mL^−1]	DPPH IC50 [1] [µM mL^−1]	CC50 Toxicity (Vero Cell) (Vero cell) [µM mL^−1]	β-Carotene IC50 [2] [µM mL^−1]	TyrEI IC50 (TyrE) [µM mL^−1]	Toxoplasma IC50 [3] [µM mL^−1]	Promastigotes IC50 (L. major promastigotes) [µM mL^−1]	ABTS IC50 [4] [µM mL^−1]	IC50 HCT-116 [5] [µM mL^−1]	IC50 HepG-2 [6] [µM mL^−1]	Inhibition of the examined indicator organisms [7]	MIC (L. monocytogenes [8]) [µM mL^−1]	MIC (C. albicans [9]) [µM mL^−1]	MIC (S. aureus [10]) [µM mL^−1]	MIC (S. typhimurium [11]) [µM mL^−1]	other results
5,6-Dimethyl-[1,3-(2,3,4,5,6-pentamethyl-2,4,6-trimethyl)-benzimidazol-2-ylidene](p-cymene) ruthenium(II) chloride [Compound 3a]	2.4 ± 0.4	61.25 ± 10.3	1.2 ± 0.3	401.12 ± 66.5	50.75 ± 8.3	1.3 ± 0.2	0.45 ± 0.07	41.78 ± 7.3	4.12 ± 0.6	9.21 ± 1.3						
5,6-Dimethyl-[1,3-(2,3,4,5,6-pentamethyl-2,4,6-trimethyl)-benzimidazol-2-ylidene](p-cymene) ruthenium(II) chloride [Compound 3b]	1.1 ± 0.2	43.05 ± 5.7	1.3 ± 0.3	225.45 ± 31.5	19.88 ± 2.4	1.4 ± 0.2	0.74 ± 0.08	32.05 ± 4.2	19.45 ± 3.2	31.40 ± 4.8	inhibited	15.6	1.25	3.9	3.9	
5,6-Dimethyl-[1,3-(3,5)dimethyl-4-methyl)-benzimidazol-2-ylidene](p-cymene) ruthenium(II) chloride [Compound 3d]	1.4 ± 0.3	32.18 ± 5.4	1.8 ± 0.2	92.25 ± 11.9	24.95 ± 3.7	1.4 ± 0.1	0.32 ± 0.04	18.17 ± 3.0	8.45 ± 0.9	12.75 ± 1.7	inhibited	3.9	1.25	1.95	1.95	IZ (inhibition zone) [7, 16]: over 25 mm; MIC (minimum inhibitory concentration) [7, 16]: < 4 µM; Inhibition zone (P. aeruginosa): 27 mm; Inhibition zone (S. typhimurium [12]): 27 mm; Inhibition zone (E. coli): 29 mm; Inhibition zone (C. albicans [13]): 27 mm; Inhibition zone (S. aureus [14]): 26 mm; Inhibition zone (L. monocytogenes [15]): 28 mm
5,6-Dimethyl-[1,3-(4-(tert-butyl)-4-methyl)-benzimidazol-2-ylidene] (p-cymene) ruthenium (II) chloride [Compound 3c]	4.2 ± 0.8	65.49 ± 11.2	1.9 ± 0.4	374.87 ± 55.7	38.17 ± 5.5	1.5 ± 0.3	0.37 ± 0.06	45.04 ± 6.6	8.45 ± 1.2	12.73 ± 1.8						
5,6-dimethyl-1,3-(3,5)-dimethyl-4-methylbenzyl)-2,3-dihydro-1H-benzo[d]imidazolium bromide [Compound 2d]	1.4 ± 0.2	74.25 ± 11.6	1.7 ± 0.3	360.90 ± 40.8	43.25 ± 6.8	3.8 ± 0.5	1.9 ± 0.3	55.21 ± 7.4	16.04 ± 2.9	26.82 ± 3.6						AChEI IC50 (electric eel AChE): 22.27 ± 3.1 µM mL^−1
